Experimental data taken from article PMC10341549, “Inhibitory Investigations of Acyl-CoA Derivatives against Human Lipoxygenase Isozymes” (International Journal of Molecular Sciences, 2023).

Tests used:
h15-LOX-1 = biological target: T1, h15-LOX-1 (Homo sapiens, UniProt P16050); assay: Substrate activity and kinetic parameters with h15-LOX-1; type: biochemical
T1 construct: His tag; made in house
T1 sequence (P16050 1-662): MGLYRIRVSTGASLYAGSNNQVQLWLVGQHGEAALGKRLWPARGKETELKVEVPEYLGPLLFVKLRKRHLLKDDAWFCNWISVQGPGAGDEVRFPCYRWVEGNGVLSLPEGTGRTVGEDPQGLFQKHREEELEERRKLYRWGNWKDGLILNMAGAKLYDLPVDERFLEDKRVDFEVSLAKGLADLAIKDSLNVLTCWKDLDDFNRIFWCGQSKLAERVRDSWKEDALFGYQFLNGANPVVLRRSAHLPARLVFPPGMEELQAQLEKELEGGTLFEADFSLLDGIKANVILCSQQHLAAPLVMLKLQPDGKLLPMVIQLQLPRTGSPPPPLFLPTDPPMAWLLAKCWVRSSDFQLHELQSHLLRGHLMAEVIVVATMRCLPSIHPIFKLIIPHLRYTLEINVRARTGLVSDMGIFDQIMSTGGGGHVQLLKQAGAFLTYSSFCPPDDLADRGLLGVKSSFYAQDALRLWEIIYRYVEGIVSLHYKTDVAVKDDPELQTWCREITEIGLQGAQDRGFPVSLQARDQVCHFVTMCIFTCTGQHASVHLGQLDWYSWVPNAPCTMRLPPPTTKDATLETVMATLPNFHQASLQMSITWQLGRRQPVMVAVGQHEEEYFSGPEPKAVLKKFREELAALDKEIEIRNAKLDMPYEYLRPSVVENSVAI

h15-LOX-2 = biological target: T2, h15-LOX-2 (Homo sapiens, UniProt O15296); assay: Kinetic investigation of oleoyl-CoA (18:1) inhibition of h15-LOX-2; type: biochemical
T2 construct: His tag; made in house
T2 sequence (O15296 1-676): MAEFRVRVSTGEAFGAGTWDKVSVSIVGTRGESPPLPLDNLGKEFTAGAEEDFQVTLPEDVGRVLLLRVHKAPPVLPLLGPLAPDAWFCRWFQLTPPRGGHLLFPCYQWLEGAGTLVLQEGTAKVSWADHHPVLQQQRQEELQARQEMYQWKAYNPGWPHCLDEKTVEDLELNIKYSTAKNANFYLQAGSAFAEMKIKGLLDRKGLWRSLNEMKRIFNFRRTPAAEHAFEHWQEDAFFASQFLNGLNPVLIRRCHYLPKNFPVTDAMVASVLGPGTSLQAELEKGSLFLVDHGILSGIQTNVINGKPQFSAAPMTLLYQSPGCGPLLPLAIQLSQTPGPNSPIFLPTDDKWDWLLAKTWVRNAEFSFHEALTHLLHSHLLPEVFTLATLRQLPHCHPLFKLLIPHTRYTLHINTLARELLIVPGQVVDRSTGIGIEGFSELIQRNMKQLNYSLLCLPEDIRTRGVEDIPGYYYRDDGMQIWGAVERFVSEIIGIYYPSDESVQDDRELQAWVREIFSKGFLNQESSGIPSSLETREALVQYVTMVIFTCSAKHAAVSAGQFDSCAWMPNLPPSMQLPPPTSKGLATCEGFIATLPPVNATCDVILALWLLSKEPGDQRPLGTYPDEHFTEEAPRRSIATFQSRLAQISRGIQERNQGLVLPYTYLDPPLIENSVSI
Protocol: (1) 1/v=(αKM/kcat)[([I]+Ki)/(β[I]+αKi)]×1/[S]+1/kcat×[([I]+αKi)/(β[I]+αKi)] (2) KM(app)=αKM[([I]+Ki)/[…]] (3) kcat/KM=(kcat/αKM)[(β[I]+αKi)/([I]+Ki)] (4) kcat=kcat[(β[I]+αKi)/([I]+αKi)]
These two parameters were then utilized to fit Equation (3) relative to kcat/KM (app), which yielded a β value of 0.26 +/− 0.23 (Figure 2). Given the high error for the β value, β was also determined by applying the values for α and Ki from the KM (app) plot to Equation 4 and fitted to the kcat data (Figure 3). This fit yielded a β value of 0.30 +/− 0.07, consistent with the Equation 3 fit but with a lower error value. These kinetic values indicate hyperbolic allostery, α > 1 (K-type inhibition) and β < 1 (V-type inhibition), with the kinetic change being equally observed in both KM (α = 3.2 +/− 1) and kcat (β = 0.30 +/− 0.07). […] It should be noted that the Ki values from our hyperbolic fits (82 +/− 70 nM) were dramatically lower than those determined from IC50 measurements (620 ± 60 nM), which is consistent with the more accurate nature of the hyperbolic fits relative to the IC50 fits, due to the oversimplification of the IC50 analysis.
The reactions were carried out in 25 mM HEPES buffer (pH 7.5), 0.01% Triton X-100. […] Reactions were performed at 22 °C in a 1 cm^2 quartz cuvette containing 2 mL of the according buffer for no longer than 2 min to avoid any cleavage of the acyl-coenzyme A. Using a Cary-UV Vis spectrophotometer, the fastest rates over 15 s intervals were recorded. Kinetic values were obtained by plotting the rate against the substrate concentration, followed by a hyperbolic saturation curve fit. The saturation curve fits were performed in triplicate and on separate days to ensure there was no bias. The equations used to find kinetic values were from previous studies.

[1] = h15-LOX-1, compared with published values [31]

Km (h15-LOX-1; as substrate of h15-LOX-1, 22 °C) | kcat (h15-LOX-1; as substrate of h15-LOX-1, 22 °C, listed as linoleoyl-CoA) | kcat (h15-LOX-1; as substrate of h15-LOX-1, 22 °C, listed as linoleoyl-CoA (18:2)) | kcat fold less than free linoleic acid (h15-LOX-1; [1]) | kcat/KM fold less than free linoleic acid (h15-LOX-1; [1]) | β (the change in kcat), Equation 4 fit (h15-LOX-2; fit of kcat data) | β (the change in kcat), Equation 3 fit (h15-LOX-2; fit of kcat/KM (app)) | Ki (h15-LOX-2; h15-LOX-2, substrate AA, pH 7.5, 22 °C, read-out: Ki (allosteric, hyperbolic fit of KM (app), Equation 2)) | Compound | Type of inhibition of h15-LOX-2 (h15-LOX-2)
12 µM | 7.5 (0.4) s^−1 | 7.5 ± 0.4 s⁻¹ | 1.3 fold | 7 fold |  |  |  | CCCCC/C=C\C/C=C\CCCCCCCC(=O)SCCNC(=O)CCNC(=O)[C@H](O)C(C)(C)COP(=O)(O)OP(=O)(O)OC[C@H]1O[C@@H](n2cnc3c(N)ncnc32)[C@H](O)[C@@H]1OP(=O)(O)O [Linoleoyl-CoA (18:2), linoleoyl-CoA] | 
 |  |  |  |  | 0.30 +/− 0.07 | 0.26 +/− 0.23 | 82 nM | CCCCCCCC/C=C\CCCCCCCC(=O)SCCNC(=O)CCNC(=O)[C@H](O)C(C)(C)COP(=O)(O)OP(=O)(O)OC[C@H]1O[C@@H](n2cnc3c(N)ncnc32)[C@H](O)[C@@H]1OP(=O)(O)O [Oleoyl-CoA (18:1), oleoyl-coenzyme A (18:1)] | allosteric inhibition (i.e., partial inhibition)
